Source: ChEMBL document CHEMBL1201862, “PubChem BioAssay data set” (2004)
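The compound was tested at five concentrations on cells cultured in 96-well plates, with a 48-hour exposure period. Here, GI50 denotes the concentration required for 50% inhibition of growth.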 Active and inactive are the calls of the source. Cut-off read from the data, not from the text of the source: active = GI50 up to about 1.1 µM and inactive = higher.

Columns and labels:
Assay in all cases: growth of human tumour cells (NCI), 48 h
SNB-75 = test system: SNB-75
HOP-18 = test system: HOP-18
NCI-H460 = test system: NCI-H460
HCT-116 = test system: HCT-116
OVCAR-5 = test system: OVCAR-5
UO-31 = test system: UO-31
DMS-114 = test system: DMS-114
KM12 = test system: KM12
NCI-H23 = test system: NCI-H23
786-0 = test system: 786-0
HOP-62 = test system: HOP-62
HT-29 = test system: HT-29
SR = test system: SR
CCRF-CEM = test system: CCRF-CEM
SK-OV-3 = test system: SK-OV-3
SK-MEL-28 = test system: SK-MEL-28
K562 = test system: K562
HCC 2998 = test system: HCC 2998
SN12C = test system: SN12C
M14 = test system: M14
NCI-H226 = test system: NCI-H226
OVCAR-4 = test system: OVCAR-4
U-251 = test system: U-251
Malme-3M = test system: Malme-3M
SF-268 = test system: SF-268
A498 = test system: A498
EKVX = test system: EKVX
COLO 205 = test system: COLO 205
OVCAR-8 = test system: OVCAR-8
SNB-19 = test system: SNB-19
KM-20L2 = test system: KM-20L2
CAKI-1 = test system: CAKI-1
DMS-273 = test system: DMS-273
SF-295 = test system: SF-295
SW-620 = test system: SW-620
RXF 393 = test system: RXF 393
UACC-62 = test system: UACC-62
A549 = test system: A549
SK-MEL-5 = test system: SK-MEL-5
DLD-1 = test system: DLD-1
UACC-257 = test system: UACC-257
OVCAR-3 = test system: OVCAR-3
IGROV-1 = test system: IGROV-1
RPMI-8226 = test system: RPMI-8226
NCI-H522 = test system: NCI-H522
HCT-15 = test system: HCT-15
HL-60 = test system: HL-60
SF-539 = test system: SF-539
MOLT-4 = test system: MOLT-4
ACHN = test system: ACHN
LOX IMVI = test system: LOX IMVI
SK-MEL-2 = test system: SK-MEL-2
LXFL 529 = test system: LXFL 529
SNB-78 = test system: SNB-78

Structure (SMILES): O=C(O)\C=C/C=C/C=C/C=C/C(=O)O
- GI50 (SNB-75): > 100 µM (inactive)
- GI50 (HOP-18): > 100 µM (inactive)
- GI50 (NCI-H460): > 100 µM (inactive)
- GI50 (HCT-116): > 100 µM (inactive)
- GI50 (OVCAR-5): > 100 µM (inactive)
- GI50 (UO-31): > 100 µM (inactive)
- GI50 (DMS-114): > 100 µM (inactive)
- GI50 (KM12): > 100 µM (inactive)
- GI50 (NCI-H23): > 100 µM (inactive)
- GI50 (786-0): > 100 µM (inactive)
- GI50 (HOP-62): > 100 µM (inactive)
- GI50 (HT-29): > 100 µM (inactive)
- GI50 (SR): > 100 µM (inactive)
- GI50 (CCRF-CEM): > 100 µM (inactive)
- GI50 (SK-OV-3): > 100 µM (inactive)
- GI50 (SK-MEL-28): > 100 µM (inactive)
- GI50 (K562): > 100 µM (inactive)
- GI50 (HCC 2998): > 100 µM (inactive)
- GI50 (SN12C): > 100 µM (inactive)
- GI50 (M14): > 100 µM (inactive)
- GI50 (NCI-H226): > 100 µM (inactive)
- GI50 (OVCAR-4): > 100 µM (inactive)
- GI50 (U-251): > 100 µM (inactive)
- GI50 (Malme-3M): > 100 µM (inactive)
- GI50 (SF-268): > 100 µM (inactive)
- GI50 (A498): > 100 µM (inactive)
- GI50 (EKVX): > 100 µM (inactive)
- GI50 (COLO 205): > 100 µM (inactive)
- GI50 (OVCAR-8): > 100 µM (inactive)
- GI50 (SNB-19): > 100 µM (inactive)
- GI50 (KM-20L2): > 100 µM (inactive)
- GI50 (CAKI-1): > 100 µM (inactive)
- GI50 (DMS-273): > 100 µM (inactive)
- GI50 (SF-295): > 100 µM (inactive)
- GI50 (SW-620): > 100 µM (inactive)
- GI50 (RXF 393): > 100 µM (inactive)
- GI50 (UACC-62): 90.4 µM (inactive)
- GI50 (A549): > 100 µM (inactive)
- GI50 (SK-MEL-5): > 100 µM (inactive)
- GI50 (DLD-1): > 100 µM (inactive)
- GI50 (UACC-257): > 100 µM (inactive)
- GI50 (OVCAR-3): > 100 µM (inactive)
- GI50 (IGROV-1): > 100 µM (inactive)
- GI50 (RPMI-8226): > 100 µM (inactive)
- GI50 (NCI-H522): > 100 µM (inactive)
- GI50 (HCT-15): > 100 µM
- GI50 (HL-60): > 100 µM (inactive)
- GI50 (SF-539): > 100 µM (inactive)
- GI50 (MOLT-4): > 100 µM (inactive)
- GI50 (ACHN): > 100 µM (inactive)
- GI50 (LOX IMVI): > 100 µM (inactive)
- GI50 (SK-MEL-2): > 100 µM (inactive)
- GI50 (LXFL 529): > 100 µM (inactive)
- GI50 (SNB-78): > 100 µM (inactive)
